This is an account of results in US20220175638A1, “CELL ACTIVATOR” (Shiseido Company, Ltd., priority 2019, published 2022).

Test [1] has as its system Human skin fibroblasts. The test is described as follows: Experiment 2: cellular activity at different C-phycocyanin concentrations and UV doses. It counts as cell-based. As to conditions: UV 0, 10, 25, 50, 75 and 100 mJ/cm^2, FIG. 3. The protocol: (§1) 1. Human skin fibroblasts (purchased from Kurabo) and human skin keratinocytes (purchased from Kurabo or PromoCell) were used. A cell suspension (1 mL) stored with liquid nitrogen was placed in a hot water bath (37° C.) and thawed until small ice pellets remained, and then diluted with 9 mL of warm medium. 2. The diluted suspension was gently mixed and transferred to a T75 flask, and incubated overnight at 37° C. 3. On the following day, the medium was exchanged with 10 mL of fresh medium. 4. The medium was periodically exchanged (once every 2 days for fibroblasts, or once every 2 to 3 days for keratinocytes), while continuing growth of the cells. During this time, a microscope was used to observe the cells and to confirm that the cells had proliferated with the proper form. 5. Once the cells reached approximately 80% confluence, they were subcultured. Subculturing of the cells was carried out by rinsing once in 10 mL of warm PBS, after which 5 mL of warm trypsin was added to the T75 flask to cover the bottom of the flask with the trypsin solution, and the mixture was suctioned after standing for 1 minute at room temperature. 6. The flask was set in an oven at 37° C. for 2 minutes (maximum) for fibroblasts and 7 minutes (maximum) for keratinocytes. A microscope was used to observe the cells, confirming that they were small and elliptical. 7. […]

The test system of test [2] is Human skin fibroblasts. The test is described as follows: Experiment 3: restoration of UV irradiation-reduced cellular activity. The settings on record: pre-irradiation 400 mJ/cm^2 without substance, then UV 0-200 mJ/cm^2 through 0.4% or 2% C-phycocyanin; FIG. 5. It counts as cell-based. The protocol: as §1

With C-phycocyanin, the entries for the “cellular activity (relative fluorescence intensity)” value in the test on Human skin fibroblasts [1] (0.4% C-phycocyanin) and with Human skin fibroblasts [1] (2% C-phycocyanin) were “reduction in cellular activity was inhibited even under UV irradiation” and “accelerated cellular activity even above the level with no UV irradiation”, respectively. Further, the “cellular activity of cells with previously lowered activity” value in the test on Human skin fibroblasts [2] was “cellular activity was restored”.
